Experimental findings from patent publication US12479847B2 (DANA-FARBER CANCER INSTITUTE, INC., priority 2019, dated 2025) are described below.

Where two headings read alike, the source gives them in different places.

Test in all cases: KINOMEscan (ScanMAX) kinase profiling
Common to all, as to type: binding

Test [1] addresses T1, panel of 468 kinases (Homo sapiens, UniProt P10721, L576P).
T1 construct: purchased KINOMEscan (ScanMAX) service
Particulars: KIT(L576P); 1 μM; read-out: % control. As to the method:
(§1) The kinase selectivity of inventive compounds 12, 75, and 77 was evaluated by KINOMEscan®. KINOMEscan® (ScanMAX™) analysis was performed against a near comprehensive panel of 468 kinases. The control percentage (% control) for inventive compounds at 1 μM in DMSO was determined by Equation 1: % control=(inventive compound−positive control)/(negative control−positive control)×100%, Equation 1
(§2) wherein the positive control is a compound with a % control value of 0% relative light units (RLU), and the negative control (i.e., DMSO) has % control value of 100% RLU. The enzyme selectivity in the present invention is defined as follows: inventive compounds are considered active for an enzyme when the observed % control is less than 35% (<35%).

In test [2] the target is T2, panel of 468 kinases (Homo sapiens, UniProt P15735).
T2 construct: purchased KINOMEscan (ScanMAX) service
T2 sequence (P15735 1-406): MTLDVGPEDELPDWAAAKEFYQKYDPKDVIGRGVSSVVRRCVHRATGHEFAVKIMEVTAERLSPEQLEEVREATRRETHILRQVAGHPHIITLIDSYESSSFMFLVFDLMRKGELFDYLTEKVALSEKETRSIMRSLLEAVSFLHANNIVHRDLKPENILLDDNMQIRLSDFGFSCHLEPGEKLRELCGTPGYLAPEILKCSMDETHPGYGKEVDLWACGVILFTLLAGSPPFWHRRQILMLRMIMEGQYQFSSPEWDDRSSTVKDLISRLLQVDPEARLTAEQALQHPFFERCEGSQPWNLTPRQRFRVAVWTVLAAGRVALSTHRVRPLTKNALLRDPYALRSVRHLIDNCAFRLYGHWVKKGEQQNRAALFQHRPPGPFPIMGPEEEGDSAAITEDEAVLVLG
Particulars: PHKG2; 1 μM; read-out: % control. How it is done: as §1, §2

The target in test [3] is T3, panel of 468 kinases (Homo sapiens, UniProt P35916).
T3 construct: purchased KINOMEscan (ScanMAX) service
Particulars: FLT4; 1 μM; read-out: % control. How it is done:
as §1, §2

Test [4] concerns the target T4, panel of 468 kinases (Homo sapiens, UniProt P51812).
T4 construct: purchased KINOMEscan (ScanMAX) service
The conditions noted are these: 1 μM, read-out: % control. As to the method: as §1, §2

The target in test [5] is T5, panel of 468 kinases (Homo sapiens, UniProt P57058).
T5 construct: purchased KINOMEscan (ScanMAX) service
T5 sequence (P57058 1-714): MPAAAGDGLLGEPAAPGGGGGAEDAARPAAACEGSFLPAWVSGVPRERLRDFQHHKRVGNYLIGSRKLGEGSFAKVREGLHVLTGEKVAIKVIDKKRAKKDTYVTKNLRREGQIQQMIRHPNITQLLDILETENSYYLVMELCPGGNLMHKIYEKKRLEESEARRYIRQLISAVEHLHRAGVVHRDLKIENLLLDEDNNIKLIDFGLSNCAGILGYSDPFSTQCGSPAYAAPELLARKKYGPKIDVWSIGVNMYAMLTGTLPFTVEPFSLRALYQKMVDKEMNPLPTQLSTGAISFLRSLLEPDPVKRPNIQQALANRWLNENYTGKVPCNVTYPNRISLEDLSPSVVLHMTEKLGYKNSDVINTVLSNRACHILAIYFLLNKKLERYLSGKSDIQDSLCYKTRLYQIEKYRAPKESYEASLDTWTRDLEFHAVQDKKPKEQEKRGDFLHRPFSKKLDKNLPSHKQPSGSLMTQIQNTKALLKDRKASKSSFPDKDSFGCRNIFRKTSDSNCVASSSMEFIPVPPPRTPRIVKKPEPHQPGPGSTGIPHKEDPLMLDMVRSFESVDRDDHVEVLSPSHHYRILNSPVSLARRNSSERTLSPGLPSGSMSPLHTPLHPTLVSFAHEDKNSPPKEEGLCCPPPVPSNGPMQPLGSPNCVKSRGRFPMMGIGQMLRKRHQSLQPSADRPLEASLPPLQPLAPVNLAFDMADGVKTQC
The conditions noted are these: HUNK; 1 μM; read-out: % control. How it is done:
as §1, §2

For test [6], the target named is T6, panel of 468 kinases (Homo sapiens, UniProt Q86YV6).
T6 construct: purchased KINOMEscan (ScanMAX) service
T6 sequence (Q86YV6 1-388): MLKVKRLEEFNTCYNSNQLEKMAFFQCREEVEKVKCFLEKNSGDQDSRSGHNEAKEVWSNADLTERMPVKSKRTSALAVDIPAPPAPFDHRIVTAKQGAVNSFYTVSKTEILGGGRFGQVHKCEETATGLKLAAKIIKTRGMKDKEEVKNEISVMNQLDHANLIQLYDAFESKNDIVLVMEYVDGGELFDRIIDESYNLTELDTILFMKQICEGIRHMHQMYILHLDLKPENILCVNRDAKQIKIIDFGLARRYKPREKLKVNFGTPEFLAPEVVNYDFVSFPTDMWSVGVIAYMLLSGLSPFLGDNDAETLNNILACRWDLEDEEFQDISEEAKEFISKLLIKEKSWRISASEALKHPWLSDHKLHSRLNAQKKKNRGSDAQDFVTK
The conditions noted are these: MYLK4; 1 μM; read-out: % control. As to the method: as §1, §2

Test [7] concerns the target T7, panel of 468 kinases (Homo sapiens, UniProt Q9H2G2).
T7 construct: purchased KINOMEscan (ScanMAX) service
Particulars: SLK; 1 μM; read-out: % control. How it is done:
as §1, §2

For test [8], the target named is T8, panel of 468 kinases (Homo sapiens, UniProt Q9P2K8, S808G).
T8 construct: purchased KINOMEscan (ScanMAX) service
Particulars: GCN2(Kin.Dom.2,S808G); 1 μM; read-out: % control. How it is done:
as §1, §2

In test [9] the target is T9, panel of 468 kinases (Plasmodium falciparum, UniProt P62344).
T9 construct: purchased KINOMEscan (ScanMAX) service
Particulars: PFCDPK1(P.falciparum); 1 μM; read-out: % control. How it is done: as §1, §2

T7 sequence (Q9H2G2 whole entry): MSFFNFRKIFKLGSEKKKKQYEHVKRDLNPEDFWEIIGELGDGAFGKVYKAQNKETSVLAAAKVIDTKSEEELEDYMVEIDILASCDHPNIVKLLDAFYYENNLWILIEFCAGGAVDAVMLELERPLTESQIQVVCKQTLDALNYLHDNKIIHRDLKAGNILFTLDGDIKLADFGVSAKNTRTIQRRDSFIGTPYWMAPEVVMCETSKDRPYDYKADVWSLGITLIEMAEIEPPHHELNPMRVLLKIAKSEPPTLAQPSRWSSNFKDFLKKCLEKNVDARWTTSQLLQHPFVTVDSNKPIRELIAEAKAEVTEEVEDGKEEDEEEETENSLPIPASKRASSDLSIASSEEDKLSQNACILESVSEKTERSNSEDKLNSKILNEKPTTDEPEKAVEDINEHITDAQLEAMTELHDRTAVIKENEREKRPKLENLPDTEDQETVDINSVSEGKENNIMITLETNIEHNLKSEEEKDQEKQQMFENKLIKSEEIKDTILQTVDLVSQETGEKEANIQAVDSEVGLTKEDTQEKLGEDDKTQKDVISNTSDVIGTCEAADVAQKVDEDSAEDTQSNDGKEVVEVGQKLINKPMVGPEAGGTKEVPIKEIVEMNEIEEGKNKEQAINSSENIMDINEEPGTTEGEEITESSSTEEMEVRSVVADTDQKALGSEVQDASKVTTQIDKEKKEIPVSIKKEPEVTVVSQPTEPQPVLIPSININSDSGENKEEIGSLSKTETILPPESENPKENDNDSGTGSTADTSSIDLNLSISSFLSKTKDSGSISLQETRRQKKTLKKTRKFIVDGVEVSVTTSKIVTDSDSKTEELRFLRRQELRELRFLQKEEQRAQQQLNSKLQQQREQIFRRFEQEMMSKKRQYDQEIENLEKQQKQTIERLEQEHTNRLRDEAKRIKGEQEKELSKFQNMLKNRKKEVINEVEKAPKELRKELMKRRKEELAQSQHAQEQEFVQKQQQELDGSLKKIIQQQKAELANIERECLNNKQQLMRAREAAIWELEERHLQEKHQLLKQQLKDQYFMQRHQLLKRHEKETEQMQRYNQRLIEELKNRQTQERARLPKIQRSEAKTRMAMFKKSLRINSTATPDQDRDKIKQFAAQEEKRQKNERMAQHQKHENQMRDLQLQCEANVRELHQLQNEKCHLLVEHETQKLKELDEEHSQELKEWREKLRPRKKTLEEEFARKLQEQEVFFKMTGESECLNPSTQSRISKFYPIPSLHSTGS
T1 sequence (P10721 26-976 L576P): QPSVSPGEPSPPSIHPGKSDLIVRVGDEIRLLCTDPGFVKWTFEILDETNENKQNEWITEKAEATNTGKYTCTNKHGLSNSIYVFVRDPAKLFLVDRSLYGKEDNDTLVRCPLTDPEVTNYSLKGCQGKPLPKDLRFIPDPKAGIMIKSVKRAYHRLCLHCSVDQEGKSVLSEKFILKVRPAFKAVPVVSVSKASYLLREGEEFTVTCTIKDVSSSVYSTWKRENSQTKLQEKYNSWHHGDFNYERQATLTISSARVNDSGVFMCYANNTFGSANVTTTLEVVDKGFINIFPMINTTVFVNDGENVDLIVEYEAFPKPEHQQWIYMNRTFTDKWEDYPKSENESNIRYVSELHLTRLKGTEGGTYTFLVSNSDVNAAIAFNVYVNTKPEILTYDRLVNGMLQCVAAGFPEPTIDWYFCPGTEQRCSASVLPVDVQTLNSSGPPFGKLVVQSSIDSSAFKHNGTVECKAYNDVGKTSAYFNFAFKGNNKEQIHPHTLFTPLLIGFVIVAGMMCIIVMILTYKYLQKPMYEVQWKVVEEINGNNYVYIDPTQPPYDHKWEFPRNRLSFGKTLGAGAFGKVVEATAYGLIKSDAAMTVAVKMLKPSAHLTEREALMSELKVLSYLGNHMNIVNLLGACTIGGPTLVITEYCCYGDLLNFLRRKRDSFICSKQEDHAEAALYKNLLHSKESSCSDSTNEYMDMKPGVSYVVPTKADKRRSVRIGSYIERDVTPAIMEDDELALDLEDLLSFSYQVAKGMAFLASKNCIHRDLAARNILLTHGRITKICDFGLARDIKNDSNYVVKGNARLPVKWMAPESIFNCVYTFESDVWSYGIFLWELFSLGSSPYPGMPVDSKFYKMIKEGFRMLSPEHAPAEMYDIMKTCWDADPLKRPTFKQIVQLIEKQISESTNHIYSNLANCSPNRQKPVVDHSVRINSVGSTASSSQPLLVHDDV
T9 sequence (P62344 whole entry): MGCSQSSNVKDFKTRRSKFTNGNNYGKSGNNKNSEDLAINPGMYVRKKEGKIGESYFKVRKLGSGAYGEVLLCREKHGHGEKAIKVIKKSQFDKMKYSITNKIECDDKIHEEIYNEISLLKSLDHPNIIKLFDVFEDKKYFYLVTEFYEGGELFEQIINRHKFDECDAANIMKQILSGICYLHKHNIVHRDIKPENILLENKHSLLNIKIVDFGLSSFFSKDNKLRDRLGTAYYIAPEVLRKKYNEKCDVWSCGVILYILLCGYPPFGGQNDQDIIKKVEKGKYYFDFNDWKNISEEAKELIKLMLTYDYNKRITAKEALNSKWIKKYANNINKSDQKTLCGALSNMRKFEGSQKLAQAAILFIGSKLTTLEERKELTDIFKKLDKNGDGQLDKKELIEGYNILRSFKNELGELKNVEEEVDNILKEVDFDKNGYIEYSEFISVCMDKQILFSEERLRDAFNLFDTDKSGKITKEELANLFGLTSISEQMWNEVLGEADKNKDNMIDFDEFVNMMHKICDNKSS
T4 sequence (P51812 whole entry): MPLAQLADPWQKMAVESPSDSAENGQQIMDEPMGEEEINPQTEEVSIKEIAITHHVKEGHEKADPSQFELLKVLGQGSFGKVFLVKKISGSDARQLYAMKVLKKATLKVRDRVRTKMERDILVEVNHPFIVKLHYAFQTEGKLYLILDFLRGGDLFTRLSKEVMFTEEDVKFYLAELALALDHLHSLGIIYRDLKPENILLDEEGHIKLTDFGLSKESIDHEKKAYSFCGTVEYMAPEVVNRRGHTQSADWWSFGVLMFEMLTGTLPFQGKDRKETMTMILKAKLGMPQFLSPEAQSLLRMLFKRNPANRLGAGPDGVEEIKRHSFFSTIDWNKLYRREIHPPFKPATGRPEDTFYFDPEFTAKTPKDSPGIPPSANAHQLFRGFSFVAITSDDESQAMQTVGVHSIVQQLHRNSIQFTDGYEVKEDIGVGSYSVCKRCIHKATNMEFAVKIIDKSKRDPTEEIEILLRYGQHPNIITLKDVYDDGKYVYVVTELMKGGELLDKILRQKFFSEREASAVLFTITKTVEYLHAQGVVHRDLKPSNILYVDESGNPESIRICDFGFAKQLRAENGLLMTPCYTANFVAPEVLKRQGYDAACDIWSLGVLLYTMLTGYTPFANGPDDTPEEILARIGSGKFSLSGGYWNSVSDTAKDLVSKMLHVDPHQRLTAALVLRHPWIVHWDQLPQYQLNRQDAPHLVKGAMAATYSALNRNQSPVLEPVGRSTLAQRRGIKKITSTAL
T8 sequence (Q9P2K8 whole entry S808G): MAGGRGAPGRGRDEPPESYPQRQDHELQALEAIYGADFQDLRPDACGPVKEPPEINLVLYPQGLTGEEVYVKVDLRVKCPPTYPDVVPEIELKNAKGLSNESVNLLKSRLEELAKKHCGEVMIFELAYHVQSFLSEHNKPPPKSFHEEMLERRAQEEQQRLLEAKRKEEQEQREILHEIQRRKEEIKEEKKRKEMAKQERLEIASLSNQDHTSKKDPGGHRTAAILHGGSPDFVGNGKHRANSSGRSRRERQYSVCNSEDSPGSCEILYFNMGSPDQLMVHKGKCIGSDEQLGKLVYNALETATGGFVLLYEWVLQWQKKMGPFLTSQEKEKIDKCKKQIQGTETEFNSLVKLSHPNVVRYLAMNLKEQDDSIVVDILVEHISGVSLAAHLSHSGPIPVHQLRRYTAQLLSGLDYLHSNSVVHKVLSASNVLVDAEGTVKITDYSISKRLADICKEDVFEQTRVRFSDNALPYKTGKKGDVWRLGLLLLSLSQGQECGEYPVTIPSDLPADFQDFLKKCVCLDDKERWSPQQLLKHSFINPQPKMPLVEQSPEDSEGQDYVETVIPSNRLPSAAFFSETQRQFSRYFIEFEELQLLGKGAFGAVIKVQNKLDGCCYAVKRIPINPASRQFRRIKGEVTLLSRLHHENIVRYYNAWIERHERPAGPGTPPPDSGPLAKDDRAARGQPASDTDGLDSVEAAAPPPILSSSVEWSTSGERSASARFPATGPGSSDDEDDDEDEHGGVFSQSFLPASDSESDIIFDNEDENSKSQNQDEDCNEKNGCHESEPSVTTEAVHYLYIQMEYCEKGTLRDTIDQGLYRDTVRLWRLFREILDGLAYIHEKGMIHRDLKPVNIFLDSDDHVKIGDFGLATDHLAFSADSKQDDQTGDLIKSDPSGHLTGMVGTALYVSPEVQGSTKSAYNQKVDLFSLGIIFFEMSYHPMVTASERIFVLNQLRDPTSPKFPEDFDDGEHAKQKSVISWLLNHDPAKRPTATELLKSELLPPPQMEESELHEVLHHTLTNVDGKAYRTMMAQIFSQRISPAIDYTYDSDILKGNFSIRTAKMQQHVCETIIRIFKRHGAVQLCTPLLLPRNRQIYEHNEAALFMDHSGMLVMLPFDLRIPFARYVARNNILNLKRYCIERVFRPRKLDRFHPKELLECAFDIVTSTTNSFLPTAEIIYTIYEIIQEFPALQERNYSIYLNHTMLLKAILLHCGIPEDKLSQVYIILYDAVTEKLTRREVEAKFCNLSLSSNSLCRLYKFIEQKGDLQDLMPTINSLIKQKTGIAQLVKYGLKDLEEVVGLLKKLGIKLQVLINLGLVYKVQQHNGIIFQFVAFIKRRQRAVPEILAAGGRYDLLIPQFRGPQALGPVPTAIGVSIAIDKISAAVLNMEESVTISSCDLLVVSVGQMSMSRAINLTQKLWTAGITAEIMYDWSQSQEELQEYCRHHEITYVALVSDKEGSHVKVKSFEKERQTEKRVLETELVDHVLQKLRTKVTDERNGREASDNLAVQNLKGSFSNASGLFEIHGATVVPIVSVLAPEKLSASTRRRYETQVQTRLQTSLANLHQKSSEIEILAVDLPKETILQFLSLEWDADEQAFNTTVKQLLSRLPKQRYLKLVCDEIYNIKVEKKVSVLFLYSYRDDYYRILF

Take `CNc1nc(Nc2ccc(S(=O)(=O)N3CCC(N4CCOCC4)CC3)cc2OC)nc2[nH]cc(Cl)c12` [Compound 12, 5-chloro-N2-(2-methoxy-4-((4-morpholinopiperidin-1-yl)sulfonyl)phenyl)-N4-methyl-7H-pyrrolo[2,3-d]pyrimidine-2,4-diamine]: the remaining binding at 1 µM in test [1] stood at 97%; in test [2], 11%; in test [3] it was 100%; in test [4] (RSK2(Kin.Dom.1-N-terminal)) it was 88%; in test [4] (RSK2(Kin.Dom.2-C-terminal)), 28%; in test [5] it was 12%. Besides, the remaining binding at 1 µM was 100% in test [6], 100% in test [7], 88% in [8] and 97% in test [9].
For `CNc1nc(Nc2ccc(C(=O)N3CCC(N4CCOCC4)CC3)c3c2OCO3)nc2[nH]cc(Cl)c12` [Compound 75, (7-((5-chloro-4-(methylamino)-7H-pyrrolo[2,3-d]pyrimidin-2-yl)amino)benzo[d][1,3]dioxol-4-yl)(4-morpholinopiperidin-1-yl)methanone], the remaining binding at 1 µM in [1] was 36%; in test [2] it was 5.3%; in [3], 100%; in test [4] (RSK2(Kin.Dom.1-N-terminal)), 71%; in test [4] (RSK2(Kin.Dom.2-C-terminal)), 31%; in test [5], 18%. For the same compound, the remaining binding at 1 µM in test [6] amounted to 100%; in test [7], 100%; in test [8], 31%; in test [9], 99%.
Take `CNc1nc(Nc2ccc(P3(=O)CCN(C4CCOCC4)CC3)cc2OC)nc2[nH]cc(Cl)c12` [Compound 77, 4-(4-((5-chloro-4-(methylamino)-7H-pyrrolo[2,3-d]pyrimidin-2-yl)amino)-3-methoxyphenyl)-1-(tetrahydro-2H-pyran-4-yl)-1,4-azaphosphinane 4-oxide]: the remaining binding at 1 µM in test [1] came out at 100%; in test [2], 1.9%; in test [3], 100%; in test [4] (RSK2(Kin.Dom.1-N-terminal)), 70%; in test [4] (RSK2(Kin.Dom.2-C-terminal)), 34%; in test [5], 14%. Also, the remaining binding at 1 µM amounted to 64% in [6], 100% in test [7], 78% in test [8] and 90% in [9].
